SMILES strings stand for the structures. Activity calls are given as the source filed them.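 Rule for the calls: active = caspase luminescence falls with dose and the half-maximal concentration AC50 from the fitted curve is at or below a set limit; inconclusive = flat fit at 30 to 70% signal loss, or invalid fit; inactive = AC50 above the limit, or signal rises instead.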

Results on 84 compounds are retold here after PubChem BioAssay AID463206 (Broad Institute, 2010).

The assay relates to INS-1E cytokine-induced caspase-3/7, Caspase-Glo luminescence, 48 h. Put plainly: suppression of cytokine-driven beta-cell apoptosis – INS-1E rat cells, luminescence, orthogonal assay for beta-cell apoptosis protection project, dose response (AID 463206).
For `Cc1ccc2nc(C)c(CN3CCN(c4ccc([N+](=O)[O-])cc4Cl)CC3)n2c1`, the AC50 (in general, the concentration at which the activity in the assay is half-maximal) is > 26 µM (inactive).

Turning to `COc1ccc(C2CC(c3cccc(C)c3)n3nc(N)nc3N2)cc1` (centres undefined), the AC50 is > 26 µM (inactive).

As to `C=C1C(=O)C=C2CN(C(=O)c3ccccc3)[C@@](Cc3ccc(F)cc3)(C(=O)OC)[C@@H]12`, the AC50 is > 26 µM (inactive).

Regarding `CN(C)CCCNc1cc(C(C)(C)C)nc2c(-c3ccccc3)cnn12`, the AC50 is > 26 µM (inactive).

`O=C(c1cc(COc2cccc(C(F)(F)F)c2)on1)N1CCC(c2ccncc2)CC1`: the AC50 was > 26 µM (inactive).

Regarding `COc1ccc(-c2sc3ccccc3c2-c2ccc(OCCN(C)C)cc2)cc1`, the AC50 was > 12 µM (inactive).

Take `O=C(Nc1ccc(Nc2ccncc2)cc1)c1ccc(Nc2ccnc3ccc([N+](=O)[O-])cc23)cc1[N+](=O)[O-]`: the AC50 was > 26 µM (inactive).

For the compound `Cc1cc(Br)cc(/C=N/NC(=O)c2ccc3c(c2)OCO3)c1O`, the AC50 is > 26 µM (inactive).

Turning to `COc1ccccc1-n1c(=O)oc2ccc(Cl)cc2c1=O`, the AC50 is > 26 µM (inactive).

As to `COc1ccc(S(=O)(=O)Nc2ccc3oc(C)c(C(C)=O)c3c2)cc1`, the AC50 is 22.6 µM.

`CCN(CC)C(=O)c1ccc(S(=O)(=O)N2CCC(c3nc4ccccc4s3)CC2)cc1`: the AC50 was > 26 µM (inactive).

With `CCCCC(=O)NC(c1ccco1)c1cc(Cl)c2cccnc2c1O` (centres undefined), the AC50 was > 26 µM (inactive).

On to `CCOC(=O)c1ccc(-[n+]2c(-c3ccccc3)cc(-c3ccccc3)cc2-c2ccccc2)cc1`, for which the AC50 is > 26 µM (inactive).

Turning to `COC(=O)c1sc(-c2ccc(C(C)(C)C)cc2)cc1NC(=O)/C=C/C(=O)O`, the AC50 was > 26 µM (inactive).

For the compound `COc1ccccc1NCC(=O)N/N=C/c1c(O)ccc2ccccc12`, the AC50 was > 26 µM (inactive).

In the case of `Clc1ccc(-c2[nH]ncc2N=Nc2ccccc2)cc1`, the AC50 was > 26 µM (inactive).

Turning to `O=C(Nc1ncnc2c1C(c1ccccc1)c1c(ccc3ccccc13)O2)c1ccccc1` (centres undefined), the AC50 is > 26 µM (inactive).

Take `Clc1ccccc1Nc1nnc(-c2ccncc2)s1`: the AC50 is > 26 µM (inactive).

As for `CCN(CC)S(=O)(=O)c1ccc(N2CCN(c3ccccc3OC)CC2)c(N)c1`, the AC50 was > 26 µM (inactive).

With `CSc1nc(N)nc2c1ncn2CC(=O)N1CCN(Cc2c(C)cc(C)cc2C)CC1`, the AC50 was > 26 µM (inactive).

`CCc1cc(C(=O)NC2CCCc3c2cnn3-c2cccc(C)c2C)n(C)n1` (centres undefined): the AC50 was > 26 µM (inactive).

In the case of `O=C(N/N=C\c1cc(Cl)ccc1O)c1ccc(S(=O)(=O)N2CCCCC2)cc1`, the AC50 is > 26 µM (inactive).

`Oc1ccc(COCc2ccccc2)c2cccnc12`: the AC50 was > 26 µM (inactive).

`CCc1ccc(OCC(=O)NC(NC(=S)Nc2ccc(C)cc2C)C(Cl)(Cl)Cl)cc1` (centres undefined): the AC50 is > 26 µM (inactive).

Turning to `C/C(=N\NC(=O)C(=O)Nc1cccc(Cl)c1)c1ccncc1`, the AC50 is > 26 µM (inactive).

On to `CCOC(=O)CS(=O)(=O)c1nc(-c2ccccc2)cc(C(F)(F)F)n1`, for which the AC50 is > 26 µM (inactive).

For `Cc1sc2ncnc(NCC(O)c3ccccc3)c2c1C` (centres undefined), the AC50 was 23.5 µM.

As to `CC(C)(C)n1nnnc1C(c1ccc(F)cc1)N(Cc1ccc(F)cc1)Cc1ccco1` (centres undefined), the AC50 was > 26 µM (inactive).

Turning to `Cc1cccc(N=Nc2ccc(O)c3ncccc23)c1`, the AC50 is > 26 µM (inactive).

Take `CNC1=C(N(C(C)=O)c2ccc(Br)cc2)C(=O)c2ccccc2C1=O`: the AC50 is > 26 µM (inactive).

Take `CC#CC[N+](C)(C)CCCCCCCC`: the AC50 was > 26 µM (inactive).

With `Cc1ccc(C(=O)Nc2cccc3[nH]c(C(F)(F)F)nc23)cc1`, the AC50 is > 26 µM (inactive).

As for `C#CCOCCOCCOCCNc1nc(N2CCN(C(=O)CCCCCCCCCCNC(=O)[C@H]([C@@H](C)CC)n3cc(CCCCN=C(N)N)nn3)CC2)nc(N2CCN(C(=O)CCCCCCCCCCNC(=O)[C@H](CCCCN)n3cc(C)nn3)CC2)n1`, the AC50 is > 26 µM (inactive).

As for `Cc1nn(S(=O)(=O)c2ccc(Cl)cc2)c(C)c1Sc1ccc([N+](=O)[O-])cc1`, the AC50 is > 26 µM (inactive).

For `CCc1ccc(S(=O)(=O)/N=C2\C=C(Nc3ccc(O)cc3)C(=O)c3ccccc32)cc1`, the AC50 is > 26 µM (inactive).

With `Cc1c(N/N=C(\C#N)C(=O)c2ccc(Cl)cc2)c(=O)n(-c2ccccc2)n1C`, the AC50 is > 26 µM (inactive).

As for `CC1(C)C[C@@H]2C[C@@](C)(CN2C(=O)c2cc(COc3cccc(C(F)(F)F)c3)on2)C1`, the AC50 was > 12 µM (inactive).

As for `Cc1sc2ncnc(NCC3COc4ccccc4O3)c2c1C` (centres undefined), the AC50 is > 26 µM (inactive).

For the compound `FC(F)(F)c1cnc(NNC(=S)Nc2ccc(Cl)cc2)c(Cl)c1`, the AC50 is > 26 µM (inactive).

In the case of `CC1=NNC(=O)/C1=C\c1cn(-c2ccccc2)nc1-c1cccs1`, the AC50 is > 26 µM (inactive).

As for `CNC[C@H](CC1CCCCC1)NC[C@H](Cc1ccccc1)NCCC12CC3CC(CC(C3)C1)C2`, the AC50 was > 26 µM (inactive).

As for `CC(C)(C)c1cc[n+](C2=C([O-])c3ccccc3C(=O)/C2=N\S(=O)(=O)c2cccs2)cc1`, the AC50 was > 26 µM (inactive).

As to `COc1cccc(/C=N/Nc2ccc([N+](=O)[O-])cn2)c1O`, the AC50 is > 26 µM (inactive).

In the case of `N/C(=N\OC(=O)c1cccc(Cn2cc(C(F)(F)F)ccc2=O)c1)c1ccccc1`, the AC50 was > 26 µM (inactive).

For the compound `Cc1ccc2c(C)ccc(O)c2n1`, the AC50 is > 26 µM (inactive).

`COc1cccc(COc2cc3ccccc3nc2C)c1`: the AC50 was > 26 µM (inactive).

Regarding `COc1cccc(C(NC(C)=O)c2ccc3cccnc3c2O)c1` (centres undefined), the AC50 is > 26 µM (inactive).

As to `COc1ccc(CCNc2ncnc3c2oc2ccccc23)cc1OC`, the AC50 is > 26 µM (inactive).

In the case of `c1cc(-c2noc(CC3CCCCC3)n2)ccn1`, the AC50 is > 26 µM (inactive).

With `O=C1c2ccccc2C2=Nc3ccccc3SC(c3ccc(Cl)cc3)C12` (centres undefined), the AC50 was > 26 µM (inactive).

For `CCS(=O)(=O)c1ncc(Cl)c(C(=O)Nc2ccc(S(=O)(=O)N3CCCC(C)C3)cc2)n1` (centres undefined), the AC50 is > 26 µM (inactive).

Turning to `O=C(Nc1ccc(OCC(F)(F)C(F)F)c(C(F)(F)F)c1)c1ccccc1O`, the AC50 was > 26 µM (inactive).

Regarding `Cc1ccccc1Oc1nc(-c2ccccn2)nc2ccccc12`, the AC50 is > 26 µM (inactive).

As for `CN(C)S(=O)(=O)c1cccc(N=C2NN=C(c3ccccc3)CS2)c1`, the AC50 is > 26 µM (inactive).

`O=C(Nc1ccc(Cl)cc1)/C(=C/c1cccc(O)c1)c1nc2ccccc2s1`: the AC50 was > 26 µM (inactive).

For the compound `CCC(C)Sc1cccc(-c2nc3ccc(C)cn3c2NCc2ccccc2)c1` (centres undefined), the AC50 is > 26 µM (inactive).

As for `CCCC(=O)N(CCN(C(=O)CCC)c1ccccc1)c1ccccc1`, the AC50 was > 26 µM (inactive).

For the compound `O=C(CN1C(=O)c2ccccc2S1(=O)=O)c1ccc(F)cc1`, the AC50 is > 26 µM (inactive).

Turning to `COC(=O)c1cc(C)nc2c1C(=O)C(=O)C=C2N1CCOCC1`, the AC50 is > 26 µM (inactive).

Regarding `COc1cc(OC)c2cc(C(=O)N/N=C/c3cccc(OC)c3O)[nH]c2c1`, the AC50 was > 26 µM (inactive).

As for `Cc1[nH]nc2nc(SCC(=O)NCCC3=CCCCC3)n(-c3ccc(Br)cc3)c(=N)c12`, the AC50 was > 26 µM (inactive).

`COC(=O)c1ccccc1NC(=O)c1nc(S(=O)(=O)Cc2ccccc2)ncc1Cl`: the AC50 is > 26 µM (inactive).

For the compound `N#CCC(=O)N/N=C/c1cc(-c2ccccc2)n(-c2ccc(Cl)cc2)c1-c1ccccc1`, the AC50 was > 26 µM (inactive).

Take `O=C(Nc1nc(-c2ccccn2)cs1)c1ccc(Br)s1`: the AC50 is > 26 µM (inactive).

As for `O=[N+]([O-])c1c(Nc2ccccn2)cc(Cl)c2nonc12`, the AC50 was > 26 µM (inactive).

For `COc1ccc(NS(=O)(=O)c2ccc(N3CCOCC3)c(N)c2)cc1`, the AC50 is > 26 µM (inactive).

Consider `Cc1cccc(NC(=O)Cn2c(/C=C/c3ccccc3)nc3ccccc32)c1`, for which the AC50 was > 26 µM (inactive).

Consider `CCN(CC)c1ccc(/C=N/NC(=O)CCC(=O)NCc2ccccc2)c(O)c1`, for which the AC50 was > 26 µM (inactive).

With `Cc1ccc(/C=N/NC(=O)Cc2ccc(Cl)cc2)c(O)c1`, the AC50 is > 26 µM (inactive).

Regarding `[O-][N+]1=c2ccc(Nc3ccccc3)cc2=NC12CCCCC2`, the AC50 is > 26 µM (inactive).

Take `CCOc1ccc(S(=O)(=O)N(C(=O)c2ccco2)c2cc3sc(=O)oc3c3ccccc23)cc1`: the AC50 was > 26 µM (inactive).

As to `CC(C)(C)c1cc(C=C(C#N)C#N)cc(C(C)(C)C)c1O`, the AC50 was > 26 µM (inactive).

Turning to `CCc1ccc(-c2cc(C(F)(F)F)n3nc(C(=O)Nc4cnn(Cc5ccc(C)cc5)c4)cc3n2)s1`, the AC50 was > 26 µM (inactive).

For `O=C(CN1CCOCC1)N/N=C/c1c(O)ccc2ccccc12`, the AC50 is > 26 µM (inactive).

Turning to `CC(C)(C)OC(=O)N1CCC(CNC(=O)c2cccs2)CC1`, the AC50 was > 26 µM (inactive).

Turning to `CCCc1sc(N/N=C/c2ccccn2)nc1-c1ccc(Br)cc1`, the AC50 was > 26 µM (inactive).

As for `CCn1c(C)c(C)c2cc(C(=O)N3CCc4ccccc4C3)ccc21`, the AC50 is > 26 µM (inactive).

With `Cc1ccc(NC(=O)Nc2cccc([N+](=O)[O-])c2)cc1F`, the AC50 was > 26 µM (inactive).

Consider `CCCCNc1c(-c2ccc(SC3CCCCC3)cc2)nc2ccccn12`, for which the AC50 was > 26 µM (inactive).

`Clc1ccc(-c2cc(-c3nnc4n3CCCCC4)c3ccccc3n2)cc1`: the AC50 is > 26 µM (inactive).

With `COc1ccc(OC)c(NC(=O)CSc2ncnc3c2cnn3-c2ccccc2Cl)c1`, the AC50 is > 26 µM (inactive).

As to `COc1ccccc1N1CC(C)(C)C(=O)N(C(=O)c2ccc(Cl)cc2)C1=S`, the AC50 was > 12 µM (inactive).

As to `O=C1C(Cl)=C(NCCN2CCCCC2)C(=O)c2ccccc21`, the AC50 was > 26 µM (inactive).

Take `O=C(NCc1ccncc1)c1cc(-c2ccc(Cl)cc2)oc1C(F)(F)F`: the AC50 is > 12 µM (inactive).
